{"source": "patent US20170190671A1", "about": "“BIS(ARYL)CATECHOL DERIVATIVES AS HERBICIDES” (E I DU PONT DE NEMOURS AND COMPANY, priority 2014, published 2017)", "format_in_all_cases": "in vivo", "key": {"[1]": {"test_system": "corn (Zea mays)", "experiment": "Test C postemergence", "settings": "Zea mays, post-emergence, 336 h, Postemergence, scale 0 to 100"}, "[2]": {"test_system": "barnyardgrass (Echinochloa crus-galli)", "experiment": "Test C postemergence", "settings": "Echinochloa crus-galli, post-emergence, Postemergence, scale 0 to 100, read-out: Plant response rating, Barnyardgrass"}, "[3]": {"test_system": "blackgrass (Alopecurus myosuroides)", "experiment": "Test C postemergence", "settings": "Alopecurus myosuroides, post-emergence, 336 h, Postemergence, scale 0 to 100, read-out: Plant response rating, Blackgrass"}, "[4]": {"test_system": "soybean (Glycine max)", "experiment": "Test C postemergence", "settings": "Glycine max, post-emergence, Postemergence, scale 0 to 100, read-out: Plant response rating, Soybean"}, "[5]": {"test_system": "johnsongrass (Sorghum halepense)", "experiment": "Test C postemergence", "settings": "Sorghum halepense, post-emergence, 336 h, Postemergence, scale 0 to 100, read-out: Plant response rating, Johnsongrass"}, "[6]": {"test_system": "Italian ryegrass (Lolium multiflorum)", "experiment": "Test C postemergence", "settings": "Lolium multiflorum, post-emergence, 336 h, Postemergence, scale 0 to 100, read-out: Plant response rating, Ryegrass, Italian"}, "[7]": {"test_system": "ragweed (common ragweed, Ambrosia elatior)", "experiment": "Test C postemergence", "settings": "Ambrosia artemisiifolia, post-emergence, 336 h, Postemergence, scale 0 to 100, read-out: Plant response rating, Ragweed"}, "[8]": {"test_system": "winter wheat (Triticum aestivum)", "experiment": "Test C postemergence", "settings": "Triticum aestivum, post-emergence, 336 h, Postemergence, scale 0 to 100, read-out: Plant response rating, Wheat"}, "[9]": {"test_system": "large (Lg) crabgrass (Digitaria sanguinalis)", "experiment": "Test C postemergence", "settings": "Digitaria sanguinalis, post-emergence, 336 h, Postemergence, scale 0 to 100, read-out: Plant response rating, Crabgrass, Large"}, "[10]": {"test_system": "oilseed rape (Brassica napus)", "experiment": "Test C postemergence", "settings": "Brassica napus, post-emergence, Postemergence, scale 0 to 100, read-out: Plant response rating, Oilseed Rape"}, "[11]": {"test_system": "velvetleaf (Abutilon theophrasti)", "experiment": "Test C postemergence", "settings": "Abutilon theophrasti, post-emergence, Postemergence, scale 0 to 100, read-out: Plant response rating, Velvetleaf"}, "[12]": {"test_system": "morningglory (Ipomoea coccinea)", "experiment": "Test C postemergence", "settings": "Ipomoea, post-emergence, 336 h, Postemergence, scale 0 to 100, read-out: Plant response rating, Morningglory"}, "[13]": {"test_system": "lambsquarters (Chenopodium album)", "experiment": "Test C postemergence", "settings": "Chenopodium album, post-emergence, 336 h, Postemergence, scale 0 to 100, read-out: Plant response rating, Lambsquarters"}, "[14]": {"test_system": "giant foxtail (Setaria faberii)", "experiment": "Test C postemergence", "settings": "Setaria faberi, post-emergence, 336 h, Postemergence, scale 0 to 100, read-out: Plant response rating, Foxtail, Giant"}, "[15]": {"test_system": "arrowleaf sida (Sida rhombifolia)", "experiment": "Test E preemergence", "settings": "scale 0 to 100", "source_text": "Seeds of plant species selected from corn (Zea mays), soybean (Glycine max), velvetleaf (Abutilon theophrasti), cocklebur (common cocklebur, Xanthium strumarium), lambsquarters (Chenopodium album), wild poinsettia (Euphorbia heterophylla), palmer pigweed (Amaranthus palmeri), waterhemp (common waterhemp, Amaranthus rudis), surinam grass (Brachiaria decumbens), large (Lg) crabgrass (Digitaria sanguinalis), Brazilian crabgrass (Digitaria horizontalis), fall panicum (Panicum dichotomiflorum), giant foxtail (Setaria faberii), green foxtail (Setaria viridis), goosegrass (Eleusine indica), johnsongrass (Sorghum halepense), ragweed (common ragweed, Ambrosia elatior), barnyardgrass (Echinochloa crus-galli), sandbur (southern sandbur, Cenchrus echinatus), arrowleaf sida (Sida rhombifolia), Italian ryegrass (Lolium multiflorum), dayflower (Virginia (VA) dayflower, Commelina virginica), field bindweed (Convolvulus arvensis), morningglory (Ipomoea coccinea), nightshade (eastern black nightshade, Solanum ptycanthum), kochia (Kochia scoparia), yellow nutsedge (Cyperus esculentus), horseweed (Conyza canadensis), and hairy beggarticks (Bidens pilosa), were planted into a silt loam soil and treated preemergence with test chemicals formulated in a non-phytotoxic solvent mixture which included a surfactant.\nAt the same time, plants from these crop and weed species and also waterhemp_RES1, (ALS & Triazine resistant common waterhemp, Amaranthus rudis), and waterhemp_RES2, (ALS & HPPD resistant common waterhemp, Amaranthus rudis) were planted in pots containing Redi-Earth® planting medium (Scotts Company, 14111 Scottslawn Road, Marysville, Ohio 43041) comprising spaghnum peat moss, vermiculite, wetting agent and starter nutrients were treated with postemergence applications of test chemicals formulated in the same manner. Plants ranged in height from 2 to 18 cm for postemergence treatments (1- to 4-leaf stage). Treated plants and controls were maintained in a greenhouse for 14 to 21 days, after which time all species were compared to controls and visually evaluated. Plant response ratings, summarized in Table E, are based on a scale of 0 to 100 where 0 is no effect and 100 is complete control. A dash (-) response means no test result."}}, "data": [{"smiles": "Fc1ccc(F)c(Oc2ncc(Cl)cn2)c1Oc1ncc(Cl)cn1", "note": "[Compound 34, 2,2′-[(3,6-difluoro-1,2-phenylene)bis(oxy)]bis[5-chloropyrimidine]]", "values": [{"measurement": "Corn plant response rating (crop injury, 0 = no effect, 100 = complete kill) at 16 g/ha", "setting": "[1]; 16 g ai/ha", "result": 5, "unit": "%"}, {"measurement": "Corn plant response rating (crop injury, 0 = no effect, 100 = complete kill) at 31 g/ha", "setting": "[1]; 31 g ai/ha", "result": 5, "unit": "%"}, {"measurement": "Corn plant response rating (crop injury, 0 = no effect, 100 = complete kill) at 62 g/ha", "setting": "[1]; 62 g ai/ha", "result": 5, "unit": "%"}, {"measurement": "Corn plant response rating (crop injury, 0 = no effect, 100 = complete kill) at 125 g/ha", "setting": "[1]; 125 g ai/ha", "result": 5, "unit": "%"}, {"measurement": "pest or weed control at 16 g/ha", "setting": "[2]; 16 g ai/ha", "result": 5, "unit": "%"}, {"measurement": "pest or weed control at 31 g/ha", "setting": "[2]; 31 g ai/ha", "result": 5, "unit": "%"}, {"measurement": "pest or weed control at 62 g/ha", "setting": "[2]; 62 g ai/ha", "result": 10, "unit": "%"}, {"measurement": "pest or weed control at 125 g/ha", "setting": "[2]; 125 g ai/ha", "result": 10, "unit": "%"}, {"measurement": "pest or weed control at 16 g/ha", "setting": "[3]; 16 g ai/ha", "result": 0, "unit": "%"}, {"measurement": "pest or weed control at 31 g/ha", "setting": "[3]; 31 g ai/ha", "result": 0, "unit": "%"}, {"measurement": "pest or weed control at 62 g/ha", "setting": "[3]; 62 g ai/ha", "result": 0, "unit": "%"}, {"measurement": "pest or weed control at 125 g/ha", "setting": "[3]; 125 g ai/ha", "result": 5, "unit": "%"}, {"measurement": "plant injury at 31 g/ha", "setting": "[4]; 31 g ai/ha", "result": 70, "unit": "%"}, {"measurement": "plant injury at 62 g/ha", "setting": "[4]; 62 g ai/ha", "result": 85, "unit": "%"}, {"measurement": "plant injury at 125 g/ha", "setting": "[4]; 125 g ai/ha", "result": 40, "unit": "%"}, {"measurement": "pest or weed control at 16 g/ha", "setting": "[5]; 16 g ai/ha", "result": 5, "unit": "%"}, {"measurement": "pest or weed control at 31 g/ha", "setting": "[5]; 31 g ai/ha", "result": 5, "unit": "%"}, {"measurement": "pest or weed control at 62 g/ha", "setting": "[5]; 62 g ai/ha", "result": 10, "unit": "%"}, {"measurement": "pest or weed control at 125 g/ha", "setting": "[5]; 125 g ai/ha", "result": 10, "unit": "%"}, {"measurement": "pest or weed control at 31 g/ha", "setting": "[6]; 31 g ai/ha", "result": 0, "unit": "%"}, {"measurement": "pest or weed control at 62 g/ha", "setting": "[6]; 62 g ai/ha", "result": 0, "unit": "%"}, {"measurement": "pest or weed control at 125 g/ha", "setting": "[6]; 125 g ai/ha", "result": 0, "unit": "%"}, {"measurement": "pest or weed control at 31 g/ha", "setting": "[7]; 31 g ai/ha", "result": 50, "unit": "%"}, {"measurement": "pest or weed control at 62 g/ha", "setting": "[7]; 62 g ai/ha", "result": 60, "unit": "%"}, {"measurement": "pest or weed control at 125 g/ha", "setting": "[7]; 125 g ai/ha", "result": 60, "unit": "%"}, {"measurement": "plant injury at 31 g/ha", "setting": "[8]; 31 g ai/ha", "result": 0, "unit": "%"}, {"measurement": "plant injury at 62 g/ha", "setting": "[8]; 62 g ai/ha", "result": 0, "unit": "%"}, {"measurement": "plant injury at 125 g/ha", "setting": "[8]; 125 g ai/ha", "result": 0, "unit": "%"}, {"measurement": "pest or weed control at 16 g/ha", "setting": "[9]; 16 g ai/ha", "result": 0, "unit": "%"}, {"measurement": "pest or weed control at 31 g/ha", "setting": "[9]; 31 g ai/ha", "result": 0, "unit": "%"}, {"measurement": "pest or weed control at 62 g/ha", "setting": "[9]; 62 g ai/ha", "result": 5, "unit": "%"}, {"measurement": "pest or weed control at 125 g/ha", "setting": "[9]; 125 g ai/ha", "result": 5, "unit": "%"}, {"measurement": "plant injury at 31 g/ha", "setting": "[10]; 31 g ai/ha", "result": 50, "unit": "%"}, {"measurement": "plant injury at 62 g/ha", "setting": "[10]; 62 g ai/ha", "result": 70, "unit": "%"}, {"measurement": "plant injury at 125 g/ha", "setting": "[10]; 125 g ai/ha", "result": 70, "unit": "%"}, {"measurement": "pest or weed control at 31 g/ha", "setting": "[11]; 31 g ai/ha", "result": 60, "unit": "%"}, {"measurement": "pest or weed control at 62 g/ha", "setting": "[11]; 62 g ai/ha", "result": 60, "unit": "%"}, {"measurement": "pest or weed control at 125 g/ha", "setting": "[11]; 125 g ai/ha", "result": 65, "unit": "%"}, {"measurement": "pest or weed control at 31 g/ha", "setting": "[12]; 31 g ai/ha", "result": 95, "unit": "%"}, {"measurement": "pest or weed control at 62 g/ha", "setting": "[12]; 62 g ai/ha", "result": 90, "unit": "%"}, {"measurement": "pest or weed control at 125 g/ha", "setting": "[12]; 125 g ai/ha", "result": 95, "unit": "%"}, {"measurement": "pest or weed control at 16 g/ha", "setting": "[13]; 16 g ai/ha", "result": 55, "unit": "%"}, {"measurement": "pest or weed control at 31 g/ha", "setting": "[13]; 31 g ai/ha", "result": 75, "unit": "%"}, {"measurement": "pest or weed control at 62 g/ha", "setting": "[13]; 62 g ai/ha", "result": 70, "unit": "%"}, {"measurement": "pest or weed control at 125 g/ha", "setting": "[13]; 125 g ai/ha", "result": 80, "unit": "%"}, {"measurement": "pest or weed control at 16 g/ha", "setting": "[14]; 16 g ai/ha", "result": 5, "unit": "%"}, {"measurement": "pest or weed control at 31 g/ha", "setting": "[14]; 31 g ai/ha", "result": 5, "unit": "%"}, {"measurement": "pest or weed control at 62 g/ha", "setting": "[14]; 62 g ai/ha", "result": 5, "unit": "%"}, {"measurement": "pest or weed control at 125 g/ha", "setting": "[14]; 125 g ai/ha", "result": 25, "unit": "%"}, {"measurement": "Plant response rating, Arrowleaf Sida", "setting": "[15]; 16 g ai/ha", "result": 60}, {"measurement": "Plant response rating, Arrowleaf Sida", "setting": "[15]; 31 g ai/ha", "result": 80}, {"measurement": "Plant response rating, Arrowleaf Sida", "setting": "[15]; 62 g ai/ha", "result": 98}, {"measurement": "Plant response rating, Arrowleaf Sida", "setting": "[15]; 125 g ai/ha", "result": 100}]}]}
